In assay [1] the target is BRD4 (His-Brd4(44-477)) (Homo sapiens (Human), UniProt O60885). Briefly: TR-FRET in-vitro binding assay for BRD4. Particulars: acetyl-histone H4 peptide. How it is done:
All assays were performed in 384 well microtiter plates. Each assay plate contained 8-point serial dilutions for 40 test compounds, plus 16 high- and 16 low controls. Liquid handling and incubation steps were done on an Innovadyne Nanodrop Express equipped with a robotic arm (Thermo CatX, Perkin Elmer/Caliper Twister II) and an incubator (Liconic STX40, Thermo Cytomat 2C450). The assay plates were prepared by addition of 50 nl per well of compound solution in 90% DMSO HummingBird nanodispenser (Zinsser Analytic). […] Reactions were incubated at 30° C. for 35 minutes. […] After 35 minutes incubation at 30° C., plates were measured in a Perkin Elmer EnVision multilabel reader.
(§1) Test compounds were dissolved in DMSO (10 mM) and transferred into 1.4 mL flat bottom or V-shaped Matrix tubes carrying a unique 2D matrix. The stock solutions were stored at […] if not used immediately. For the test procedure the vials were defrosted and identified by a scanner whereby a working sheet was generated that guided the subsequent working steps. Compound dilutions were made in 96 well plates. This format enabled the assay of maximally 40 individual test compounds at 8 concentrations (single points) including 4 reference compounds, if desired (known BET inhibitors from the prior art, for this and other assays of the type disclosed herein). The dilution protocol included the production of “pre-dilution plates”, “master plates” and “assay plates”.
Pre-dilution plates: 96 polypropylene well plates were used as pre-dilution plates. A total of 4 pre-dilution plates were prepared including 10 test compounds each on the plate positions A1-A10, one standard compound at A11 and one DMSO control at A12. All dilution steps were done on a HamiltonSTAR robot. […] These plates were used directly for the assay which was performed in a total volume of 13.55 μL. […] Cell Growth Inhibition Assay

Assay [2] deals with BRD2 (His-Brd2(60-472)) (Homo sapiens (Human), UniProt P25440). Briefly: TR-FRET in-vitro binding assay for BRD2. The settings on record: acetyl-histone H4 peptide. How it is done: All assays were performed in 384 well microtiter plates. Each assay plate contained 8-point serial dilutions for 40 test compounds, plus 16 high- and 16 low controls. Liquid handling and incubation steps were done on an Innovadyne Nanodrop Express equipped with a robotic arm (Thermo CatX, Perkin Elmer/Caliper Twister II) and an incubator (Liconic STX40, Thermo Cytomat 2C450). The assay plates were prepared by addition of 50 nl per well of compound solution in 90% DMSO HummingBird nanodispenser (Zinsser Analytic). The assay was started by stepwise addition of 4.5 μl per well of bromo domain protein (50 mM HEPES, pH 7.5, 0.005% Tween20, 0.1% BSA, 50 mM NaCl, 45 nM His-Brd2(60-472) or 45 nM His-Brd3(20-477) or 45 nM His-Brd4(44-477) all proteins produced in-house) and 4.5 μl per well of peptide solution (50 mM HEPES, pH 7.5, 0.005% Tween20, 0.1% BSA, 50 mM NaCl, 60 nM acetyl-histone H4 (AcK 5, 8, 12, 16) (Biosyntan GmbH)). Reactions were incubated at 30° C. for 35 minutes. Subsequently 4.5 μl per well detection mix (50 mM HEPES, pH 7.5, 0.005% Tween20, 0.1% BSA, 50 mM NaCl, 3 nM Eu-labeled anti-His6 antibody, 21 nM streptavidin-allophycocyanin) were added. After 35 minutes incubation at 30° C., plates were measured in a Perkin Elmer EnVision multilabel reader. Concentrations causing 50% inhibition (1050) values were determined from percent inhibition values at different compound concentrations by non-linear regression analysis.
as §1
Pre-dilution plates: 96 polypropylene well plates were used as pre-dilution plates. A total of 4 pre-dilution plates were prepared including 10 test compounds each on the plate positions A1-A10, one standard compound at A11 and one DMSO control at A12. All dilution steps were done on a HamiltonSTAR robot. Master plates: 30 μL of individual compound dilutions including standard compound and controls of the 4 “pre-dilution plates” were transferred into a 384 “master plate” including the following concentrations 10000, 3003, 1000, 300, 100, 30, 10 and 3 μM, respectively in 90% of DMSO. Assay plates: Identical “assay plates” were then prepared by pipetting 50 nL each of compound dilutions of the “master plates” into 384-well “assay plates” by means of a HummingBird 384-channel dispenser. These plates were used directly for the assay which was performed in a total volume of 13.55 μL. This led to a final compound concentration of 37, 11, 3.7, 1.1, 0.37, 0.11, 0.037 and 0.011 μM and a final DMSO concentration of 0.37% in the assay. Cell Growth Inhibition Assay

pIC50: −log10 of the molar value.

BRD2 (His-Brd2(60-472)), sequence (P25440 60-472, species assumed): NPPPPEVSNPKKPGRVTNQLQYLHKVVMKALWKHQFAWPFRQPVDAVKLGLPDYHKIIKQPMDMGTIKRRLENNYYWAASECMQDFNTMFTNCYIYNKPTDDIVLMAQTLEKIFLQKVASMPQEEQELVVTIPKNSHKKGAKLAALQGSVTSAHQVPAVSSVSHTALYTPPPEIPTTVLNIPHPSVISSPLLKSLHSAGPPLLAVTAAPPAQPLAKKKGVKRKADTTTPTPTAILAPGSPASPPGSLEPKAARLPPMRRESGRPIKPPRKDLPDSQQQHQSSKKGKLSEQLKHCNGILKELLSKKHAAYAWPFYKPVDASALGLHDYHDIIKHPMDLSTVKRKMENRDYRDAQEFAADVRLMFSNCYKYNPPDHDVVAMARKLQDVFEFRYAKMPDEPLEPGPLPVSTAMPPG

What is called pIC50 is the IC50 on a negative log10 scale, so that one unit is a factor of ten. The low end stands for a large IC50, the high end for a small IC50. For the compound `Cc1cc(N2C(=O)c3c(C4CC4)nn(C)c3C2c2ccc(Cl)cc2)cn(C)c1=O` (stereo not drawn) [Example 1, 6-(4-chlorophenyl)-3-cyclopropyl-5-(1,5-dimethyl-6-oxo-1,6-dihydropyridin-3-yl)-1-methyl-5,6-dihydropyrrolo[3,4-c]pyrazol-4(1H)-one], the figures for the negative logarithm of the IC50 (pIC50) in assay [1] and in assay [2] were 7.55 and 7.49, respectively.
On to `CNC1=C(C(=N)C2CC2)C(=O)N(c2cc(C)c(=O)n(C)c2)[C@@H]1c1ccc(Cl)cc1` [Example 2], for which the pIC50 is 7.80 in assay [1] and 7.66 in assay [2].
For `Cc1cc(N2C(=O)c3c(C4CC4)nn(CCO)c3C2c2ccc(Cl)cc2)cn(C)c1=O` (stereo not drawn) [Example 3, 6-(4-chlorophenyl)-3-cyclopropyl-5-(1,5-dimethyl-6-oxo-1,6-dihydropyridin-3-yl)-1-(2-hydroxyethyl)-5,6-dihydropyrrolo[3,4-c]pyrazol-4(1H)-one], in that order: 7.37 and 7.38.
The corresponding values for `COCCn1nc(C2CC2)c2c1C(c1ccc(Cl)cc1)N(c1cc(C)c(=O)n(C)c1)C2=O` (stereo not drawn) [Example 4, 6-(4-chlorophenyl)-3-cyclopropyl-5-(1,5-dimethyl-6-oxo-1,6-dihydropyridin-3-yl)-1-(2-methoxyethyl)-5,6-dihydropyrrolo[3,4-c]pyrazol-4(1H)-one] are 7.85 and 7.82.
The corresponding values for `Cc1cc(N2C(=O)c3c(C4CC4)nn(-c4ccnn4C)c3C2c2ccc(Cl)cc2)cn(C)c1=O` (stereo not drawn) [Example 5, 6-(4-chlorophenyl)-3-cyclopropyl-5-(1,5-dimethyl-6-oxo-1,6-dihydropyridin-3-yl)-1-(1-methyl-1H-pyrazol-5-yl)-5,6-dihydropyrrolo[3,4-c]pyrazol-4(1H)-one] are 7.02 and 7.13.
For the compound `Cc1[nH]nc2c1C(=O)N(c1cc(Cl)c(=O)n(C)c1)C2c1ccc(Cl)cc1` (stereo not drawn) [Example 6, 5-(5-chloro-1-methyl-6-oxo-1,6-dihydropyridin-3-yl)-6-(4-chlorophenyl)-3-methyl-5,6-dihydropyrrolo[3,4-c]pyrazol-4(2H)-one], the pIC50 was 6.92 in assay [1] and 7.03 in assay [2].
With `COc1ncccc1-n1nc2c(c1C)C(=O)N(c1cc(Cl)c(=O)n(C)c1)C2c1ccc(Cl)cc1` (stereo not drawn) [Example 7b, 5-(5-chloro-1-methyl-6-oxo-1,6-dihydropyridin-3-yl)-6-(4-chlorophenyl)-2-(2-methoxypyridin-3-yl)-3-methyl-5,6-dihydropyrrolo[3,4-c]pyrazol-4(2H)-one], the pIC50 in assay [1] is 7.39; in assay [2], 7.49.
For the compound `COc1ncc(-n2nc(C)c3c2C(c2ccc(Cl)cc2)N(c2cc(Cl)c(=O)n(C)c2)C3=O)cn1` (stereo not drawn) [Example 8a, 5-(5-chloro-1-methyl-6-oxo-1,6-dihydropyridin-3-yl)-6-(4-chlorophenyl)-1-(2-methoxypyrimidin-5-yl)-3-methyl-5,6-dihydropyrrolo[3,4-c]pyrazol-4(1H)-one], the results for the pIC50 in assay [1] and in assay [2] were 6.77 and 6.92, respectively.
The corresponding values for `COc1ncc(-n2nc3c(c2C)C(=O)N(c2cc(Cl)c(=O)n(C)c2)C3c2ccc(Cl)cc2)cn1` (stereo not drawn) [Example 8b, 5-(5-chloro-1-methyl-6-oxo-1,6-dihydropyridin-3-yl)-6-(4-chlorophenyl)-2-(2-methoxypyrimidin-5-yl)-3-methyl-5,6-dihydropyrrolo[3,4-c]pyrazol-4(2H)-one] are 6.68 and 6.80.
Turning to `Cc1nn(C)c2c1C(=O)N(c1cc(C)c(=O)n(C)c1)C2c1ccc(Cl)cc1` (stereo not drawn) [Example 10, 6-(4-chlorophenyl)-5-(1,5-dimethyl-6-oxo-1,6-dihydropyridin-3-yl)-1,3-dimethyl-5,6-dihydropyrrolo[3,4-c]pyrazol-4(1H)-one], the values for the pIC50 in assay [1] and in assay [2] were 7.05 and 7.08, respectively.
The corresponding values for `Cc1nn(C2CC2)c2c1C(=O)N(c1cc(C)c(=O)n(C)c1)C2c1ccc(Cl)cc1` (stereo not drawn) [Example 11, 6-(4-chlorophenyl)-1-cyclopropyl-5-(1,5-dimethyl-6-oxo-1,6-dihydropyridin-3-yl)-3-methyl-5,6-dihydropyrrolo[3,4-c]pyrazol-4(1H)-one] are 7.40 and 7.42.
`Cc1nn(C(C)C)c2c1C(=O)N(c1cc(C)c(=O)n(C)c1)C2c1ccc(Cl)cc1` (stereo not drawn) [Example 12, 6-(4-chlorophenyl)-5-(1,5-dimethyl-6-oxo-1,6-dihydropyridin-3-yl)-1-isopropyl-3-methyl-5,6-dihydropyrrolo[3,4-c]pyrazol-4(1H)-one]: the negative logarithm of the IC50 (pIC50) in assay [1] was 7.17; in assay [2], 7.28.
For `COc1ccc(-n2nc(C)c3c2C(c2ccc(Cl)cc2)N(c2cc(C)c(=O)n(C)c2)C3=O)cc1` (stereo not drawn) [Example 13, 6-(4-chlorophenyl)-5-(1,5-dimethyl-6-oxo-1,6-dihydropyridin-3-yl)-1-(4-methoxyphenyl)-3-methyl-5,6-dihydropyrrolo[3,4-c]pyrazol-4(1H)-one], in that order: 6.99 and 7.01.
Regarding `COc1ncc(-n2nc3c(c2C)C(=O)N(c2cc(C)c(=O)n(C)c2)C3c2ccc(Cl)cc2)c(OC)n1` (stereo not drawn) [Example 14, 6-(4-chlorophenyl)-2-(2,4-dimethoxypyrimidin-5-yl)-5-(1,5-dimethyl-6-oxo-1,6-dihydropyridin-3-yl)-3-methyl-5,6-dihydropyrrolo[3,4-c]pyrazol-4(2H)-one], the results for the pIC50 in assay [1] and in assay [2] were 7.00 and 7.03, respectively.
The corresponding values for `COc1ncccc1-c1nn(C)c2c1C(=O)N(c1cc(C)c(=O)n(C)c1)C2c1ccc(Cl)cc1` (stereo not drawn) [Example 15, 6-(4-chlorophenyl)-5-(1,5-dimethyl-6-oxo-1,6-dihydropyridin-3-yl)-3-(2-methoxypyridin-3-yl)-1-methyl-5,6-dihydropyrrolo[3,4-c]pyrazol-4(1H)-one] are 7.20 and 7.15.
Consider `COc1ncccc1-c1nn(C)c2c1C(=O)N(c1cc(C)c(=O)n(C)c1)[C@@H]2c1ccc(Cl)cc1` [Example 16, (R)-6-(4-chlorophenyl)-5-(1,5-dimethyl-6-oxo-1,6-dihydropyridin-3-yl)-3-(2-methoxypyridin-3-yl)-1-methyl-5,6-dihydropyrrolo[3,4-c]pyrazol-4(1H)-one], for which the figures for the negative-log IC50 (pIC50) in assay [1] and in assay [2] were 7.25 and 7.31, respectively.
Take `COc1ncccc1-n1nc2c(c1C)C(=O)N(c1cc(C)c(=O)n(C)c1)C2c1ccc(Cl)cc1` (stereo not drawn) [Example 17b, 6-(4-chlorophenyl)-5-(1,5-dimethyl-6-oxo-1,6-dihydropyridin-3-yl)-2-(2-methoxypyridin-3-yl)-3-methyl-5,6-dihydropyrrolo[3,4-c]pyrazol-4(2H)-one]: the figures for the pIC50 in assay [1] and in assay [2] were 7.25 and 7.28, respectively.
Regarding `CCOc1ncccc1-n1nc2c(c1C)C(=O)N(c1cc(C)c(=O)n(C)c1)C2c1ccc(Cl)cc1` (stereo not drawn) [Example 18b, 6-(4-chlorophenyl)-5-(1,5-dimethyl-6-oxo-1,6-dihydropyridin-3-yl)-2-(2-ethoxypyridin-3-yl)-3-methyl-5,6-dihydropyrrolo[3,4-c]pyrazol-4(2H)-one], the values for the pIC50 in assay [1] and in assay [2] were 7.39 and 7.46, respectively.

The record behind these values is patent US9714249B2 (Novartis AG, priority 2013, dated 2017).
